This passage reports EC50, IC50 and AC50 results from ChEMBL document CHEMBL1201862, “PubChem BioAssay data set” (2004).

Activity calls are given as the source filed them. A value given as a limit tells only on which side of the number the result lay.

The nature of experiment [1]: luciferase reporter signal suppression in cells – H4 neuroglioma cells, luminescence, dose response (AID 1990). In kind it is functional, cell-based. In general terms: In a reporter assay the amount or activity of a reporter protein is the signal.
Experiment [2] can be described thus: luciferase reporter signal reduction – luminescence, H4-C neuroglioblastoma cells, dose response (AID 2458).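 Further: H4 neuroglioblastoma cells stably carrying a luciferase reporter gene fusion.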 In kind it is functional, cell-based.
A short description of experiment [3]: cells. In kind it is functional, cell-based.
Experiment [4] in a line: Luminescence Cell-Based Dose Response HTS to Identify Inhibitors of 5'UTR Stem-Loop Driven Prion Protein mRNA Translation in H4 Neuroglioblastoma Cells. [Related pubchem assays: 1827 (Project Summary), 1813 (Primary HTS)]. The class given is functional.
The nature of experiment [5]: alpha-synuclein stem-loop luciferase translation blockers – H4 neuroglioma cells, luminescence, confirmation (AID 1988). In kind it is functional, cell-based.
The nature of experiment [6]: alpha-synuclein stem-loop translation blockers – luminescence, H4 neuroglioblastoma cells, dose confirmation, confirmation (AID 2454).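 Further: H4 neuroglioblastoma cells carrying an alpha-synuclein 5'UTR luciferase reporter; potency for inhibition of the luciferase signal.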 The class given is functional, cell-based.
The nature of experiment [7]: cells. The class given is functional, cell-based. This is another data set of the same source.
For experiment [8], the target named is T1, Nuclear receptor subfamily 0 group B member 1 (Homo sapiens, UniProt P51843).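 Further: HEK293T cells transfected with SF-1 and DAX-1 plus StAR promoter luciferase reporter.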
T1 sequence (P51843 whole entry): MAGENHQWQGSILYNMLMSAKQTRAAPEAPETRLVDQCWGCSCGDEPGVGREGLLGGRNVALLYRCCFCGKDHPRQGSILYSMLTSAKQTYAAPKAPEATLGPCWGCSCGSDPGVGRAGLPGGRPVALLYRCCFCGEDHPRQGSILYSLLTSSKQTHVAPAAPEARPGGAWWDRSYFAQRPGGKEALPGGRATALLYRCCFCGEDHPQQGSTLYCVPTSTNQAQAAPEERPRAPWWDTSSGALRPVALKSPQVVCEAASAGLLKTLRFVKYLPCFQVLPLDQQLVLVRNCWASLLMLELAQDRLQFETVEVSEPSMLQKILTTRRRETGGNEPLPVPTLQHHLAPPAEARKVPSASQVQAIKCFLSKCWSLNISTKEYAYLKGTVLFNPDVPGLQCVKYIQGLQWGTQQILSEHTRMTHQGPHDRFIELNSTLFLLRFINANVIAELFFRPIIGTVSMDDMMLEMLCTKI
In kind it is functional, cell-based.

A further experiment concerns the target Paired box protein Pax-8 (Homo sapiens, UniProt Q06710). In words: PAX8 transcriptional activity inhibition in RMG-I – RMG-I cells, luciferase, cherry-pick, dose response (AID 687027).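 Further: luciferase reporter driven by Pax8 target thyroperoxidase promoter measured by SteadyGlo luminescence.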 The class given is functional, cell-based.
Experiment [9] has as its target Melanin-concentrating hormone receptor 1 (Homo sapiens, UniProt Q99705). Kind of experiment: Fluorescence-based counterscreen for antagonists of the G-protein coupled receptor 7 (GPR7): cell-based high throughput dose response assay to identify antagonists of the melanin-concentrating hormone receptor 1 (MCHR1). The class given is functional.
For experiment [10], the target named is Neurotensin receptor type 1 (Homo sapiens, UniProt P30989). The class given is functional.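 Further: Image-based confirmatory dose-response assay measuring agonist activity at NTR1; NTR1-expressing U2OS osteosarcoma cells imaged for beta-arrestin GFP spot formation; agonist potency where compounds increase beta-arrestin recruitment.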
Chain of Neurotensin receptor type 1 (P30989 whole entry): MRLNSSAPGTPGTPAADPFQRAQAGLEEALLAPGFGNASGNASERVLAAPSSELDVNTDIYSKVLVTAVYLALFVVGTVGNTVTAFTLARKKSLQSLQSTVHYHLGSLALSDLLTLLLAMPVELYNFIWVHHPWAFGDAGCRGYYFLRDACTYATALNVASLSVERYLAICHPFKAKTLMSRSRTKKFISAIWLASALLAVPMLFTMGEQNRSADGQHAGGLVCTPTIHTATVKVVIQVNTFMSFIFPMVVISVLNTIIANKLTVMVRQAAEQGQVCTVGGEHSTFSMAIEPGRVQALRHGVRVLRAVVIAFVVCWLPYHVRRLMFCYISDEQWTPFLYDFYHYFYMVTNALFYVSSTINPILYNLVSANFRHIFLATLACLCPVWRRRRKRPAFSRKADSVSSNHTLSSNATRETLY
Experiment [11] concerns the target T2, Low molecular weight phosphotyrosine protein phosphatase (Homo sapiens, UniProt P24666).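 Further: Dose-response confirmation assay measuring inhibition of LMPTP enzyme activity by fluorescence intensity read-out.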
T2 sequence (P24666 whole entry): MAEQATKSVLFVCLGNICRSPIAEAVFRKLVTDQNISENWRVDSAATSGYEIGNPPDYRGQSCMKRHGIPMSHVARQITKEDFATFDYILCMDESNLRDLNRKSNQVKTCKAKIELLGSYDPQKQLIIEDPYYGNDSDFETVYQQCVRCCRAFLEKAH
In kind it is functional. Particulars: read-out: IC50_Mean.

The target of the next experiment is Cytochrome P450 2C9 (Homo sapiens, UniProt P11712). Particulars: Potency.
Chain of Cytochrome P450 2C9 (P11712 whole entry): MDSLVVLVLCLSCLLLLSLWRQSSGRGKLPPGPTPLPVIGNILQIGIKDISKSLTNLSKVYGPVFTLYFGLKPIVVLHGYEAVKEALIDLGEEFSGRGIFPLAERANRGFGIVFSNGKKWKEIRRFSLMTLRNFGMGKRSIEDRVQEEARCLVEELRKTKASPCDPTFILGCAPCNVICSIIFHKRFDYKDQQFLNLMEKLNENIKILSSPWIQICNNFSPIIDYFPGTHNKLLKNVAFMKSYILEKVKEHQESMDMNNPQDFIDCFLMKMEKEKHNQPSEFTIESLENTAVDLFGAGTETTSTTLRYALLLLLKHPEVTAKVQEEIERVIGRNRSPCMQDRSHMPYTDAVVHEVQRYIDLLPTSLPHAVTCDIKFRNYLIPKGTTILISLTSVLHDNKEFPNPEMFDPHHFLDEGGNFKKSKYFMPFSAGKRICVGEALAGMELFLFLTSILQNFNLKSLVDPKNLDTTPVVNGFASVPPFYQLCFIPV
For experiment [12], the target named is Lysosomal acid glucosylceramidase (Homo sapiens, UniProt P04062). Kind of experiment: Dose response cell-based high throughput screening assay to identify enhancers of beta-glucosidase activity. [Related pubchem assays: 784 ]. In kind it is functional.
Chain of Lysosomal acid glucosylceramidase (P04062 whole entry): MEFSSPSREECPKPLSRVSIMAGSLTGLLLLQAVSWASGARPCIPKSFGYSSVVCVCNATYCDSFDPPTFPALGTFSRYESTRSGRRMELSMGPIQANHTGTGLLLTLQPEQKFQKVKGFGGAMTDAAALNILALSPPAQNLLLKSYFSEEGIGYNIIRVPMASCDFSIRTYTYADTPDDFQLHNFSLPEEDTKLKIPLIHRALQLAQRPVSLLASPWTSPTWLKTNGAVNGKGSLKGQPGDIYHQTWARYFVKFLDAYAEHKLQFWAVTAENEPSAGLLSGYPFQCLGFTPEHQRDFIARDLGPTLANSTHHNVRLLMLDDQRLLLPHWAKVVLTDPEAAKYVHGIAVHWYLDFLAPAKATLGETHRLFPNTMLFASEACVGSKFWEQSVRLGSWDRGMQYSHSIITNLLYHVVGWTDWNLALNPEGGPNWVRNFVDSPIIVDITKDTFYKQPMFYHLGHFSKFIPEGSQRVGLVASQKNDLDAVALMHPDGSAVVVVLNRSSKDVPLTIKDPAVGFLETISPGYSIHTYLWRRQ
Another experiment deals with T3, Aspartyl aminopeptidase (Plasmodium falciparum 3D7, UniProt Q8I2J3).
T3 sequence (Q8I2J3 whole entry): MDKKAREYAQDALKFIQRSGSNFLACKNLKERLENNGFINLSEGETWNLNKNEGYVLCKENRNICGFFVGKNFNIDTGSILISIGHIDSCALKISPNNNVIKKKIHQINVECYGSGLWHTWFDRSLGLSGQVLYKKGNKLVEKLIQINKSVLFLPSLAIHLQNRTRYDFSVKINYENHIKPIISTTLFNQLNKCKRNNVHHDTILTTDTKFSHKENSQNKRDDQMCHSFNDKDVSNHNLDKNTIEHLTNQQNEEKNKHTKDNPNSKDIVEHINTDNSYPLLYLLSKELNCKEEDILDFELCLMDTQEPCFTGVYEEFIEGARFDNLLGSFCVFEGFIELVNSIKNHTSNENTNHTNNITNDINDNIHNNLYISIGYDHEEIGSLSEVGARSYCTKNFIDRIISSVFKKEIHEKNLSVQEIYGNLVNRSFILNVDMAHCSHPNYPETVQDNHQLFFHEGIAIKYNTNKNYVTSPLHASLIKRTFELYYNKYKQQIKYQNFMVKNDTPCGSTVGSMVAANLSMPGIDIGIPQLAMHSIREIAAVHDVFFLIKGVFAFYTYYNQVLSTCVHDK

The target in another experiment is Procathepsin L (Homo sapiens, UniProt P07711).
Chain of Procathepsin L (P07711 whole entry): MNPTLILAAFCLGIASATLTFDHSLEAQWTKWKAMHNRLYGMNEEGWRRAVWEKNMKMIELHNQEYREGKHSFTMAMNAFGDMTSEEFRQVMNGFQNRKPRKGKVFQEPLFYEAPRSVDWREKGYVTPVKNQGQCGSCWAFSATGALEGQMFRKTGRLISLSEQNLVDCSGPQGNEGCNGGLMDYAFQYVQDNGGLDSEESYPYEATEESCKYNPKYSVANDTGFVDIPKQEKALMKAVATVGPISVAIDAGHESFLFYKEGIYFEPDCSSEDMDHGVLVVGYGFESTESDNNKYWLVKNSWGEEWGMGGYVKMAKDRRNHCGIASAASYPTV
Another experiment concerns the target Cytochrome P450 2C19 (Homo sapiens, UniProt P33261). In words: qHTS Assay for Inhibitors and Substrates of Cytochrome P450 2C19. [Related pubchem assays: 410 ]. The class given is ADME. Particulars: read-out: Potency.
Experiment [13] in a line: Luminescence Cell-Based Dose Retest to Confirm Inhibitors of Cancer Stem Cells. [Related pubchem assays (depositor defined):AID2717, AID2721]. The class given is functional. Particulars: Homo sapiens.
Experiment [14] deals with T4, Microphthalmia-associated transcription factor (Homo sapiens, UniProt O75030).
T4 sequence (O75030 whole entry): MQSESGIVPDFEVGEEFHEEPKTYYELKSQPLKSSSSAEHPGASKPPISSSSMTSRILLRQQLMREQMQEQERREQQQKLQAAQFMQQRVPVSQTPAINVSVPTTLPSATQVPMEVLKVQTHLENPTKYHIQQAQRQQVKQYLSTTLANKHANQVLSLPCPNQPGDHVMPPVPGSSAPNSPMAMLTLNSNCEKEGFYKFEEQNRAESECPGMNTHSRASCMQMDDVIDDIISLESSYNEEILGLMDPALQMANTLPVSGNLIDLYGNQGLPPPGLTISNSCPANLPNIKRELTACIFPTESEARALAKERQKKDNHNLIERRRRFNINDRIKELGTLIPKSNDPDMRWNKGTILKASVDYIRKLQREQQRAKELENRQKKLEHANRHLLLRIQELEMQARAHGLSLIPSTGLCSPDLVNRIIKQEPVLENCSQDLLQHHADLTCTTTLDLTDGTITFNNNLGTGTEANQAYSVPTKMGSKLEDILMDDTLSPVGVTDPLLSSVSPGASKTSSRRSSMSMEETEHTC
Kind of experiment: reducers of TRPM1 reporter luminescence, concentration series – cell-based, SK-MEL-5, cherry-picked, set 3, MITF inhibitor project, dose response (AID 493073).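 Further: SK-MEL-5 melanoma cells with luciferase driven by the MITF target TRPM1 promoter.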 The class given is functional.

Another experiment has as its target Hexokinase (Trypanosoma brucei, UniProt Q38C41). Kind of experiment: Confirmation assay for inhibitors of Trypanosoma brucei hexokinase 1-Analogue-first series. [Related pubchem assays (depositor defined):AID1430, AID1632, AID2516, AID2560, AID2579, AID2600, AID449725, AID492951]. In kind it is functional.
The target of experiment [15] is Acyl-homoserine lactone acylase PvdQ (Pseudomonas aeruginosa (strain LESB58), UniProt Q9I194). Kind of experiment: PvdQ acylase enzyme activity blockers – biochemical, fluorescence, plate reader and imaging, cherry-picks, dose response (AID 493231).
Chain of Acyl-homoserine lactone acylase PvdQ (Q9I194 24-193 limits assumed): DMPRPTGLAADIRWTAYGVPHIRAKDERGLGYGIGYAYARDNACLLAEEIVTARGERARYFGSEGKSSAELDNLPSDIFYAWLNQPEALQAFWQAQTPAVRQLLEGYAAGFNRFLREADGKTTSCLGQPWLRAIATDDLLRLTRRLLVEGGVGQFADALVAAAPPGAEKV
Chain of Acyl-homoserine lactone acylase PvdQ (Q9I194 217-762 limits assumed): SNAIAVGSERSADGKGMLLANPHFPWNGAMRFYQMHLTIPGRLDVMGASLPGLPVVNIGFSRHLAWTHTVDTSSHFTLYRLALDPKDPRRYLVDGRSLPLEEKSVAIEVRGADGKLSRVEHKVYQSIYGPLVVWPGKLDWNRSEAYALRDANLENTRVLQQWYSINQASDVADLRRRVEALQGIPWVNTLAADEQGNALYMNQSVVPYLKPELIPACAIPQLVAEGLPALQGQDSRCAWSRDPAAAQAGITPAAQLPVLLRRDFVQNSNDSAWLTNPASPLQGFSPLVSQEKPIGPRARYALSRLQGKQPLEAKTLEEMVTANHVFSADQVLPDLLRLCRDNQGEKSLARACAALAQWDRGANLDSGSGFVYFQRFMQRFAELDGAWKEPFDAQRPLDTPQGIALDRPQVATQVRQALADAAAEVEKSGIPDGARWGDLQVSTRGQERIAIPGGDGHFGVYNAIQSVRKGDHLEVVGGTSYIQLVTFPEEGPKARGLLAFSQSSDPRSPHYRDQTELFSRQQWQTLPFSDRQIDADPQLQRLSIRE
The next experiment deals with Large T antigen (Simian virus 40, UniProt P03070). The class given is functional, Betapolyomavirus macacae.
Chain of Large T antigen (P03070 whole entry): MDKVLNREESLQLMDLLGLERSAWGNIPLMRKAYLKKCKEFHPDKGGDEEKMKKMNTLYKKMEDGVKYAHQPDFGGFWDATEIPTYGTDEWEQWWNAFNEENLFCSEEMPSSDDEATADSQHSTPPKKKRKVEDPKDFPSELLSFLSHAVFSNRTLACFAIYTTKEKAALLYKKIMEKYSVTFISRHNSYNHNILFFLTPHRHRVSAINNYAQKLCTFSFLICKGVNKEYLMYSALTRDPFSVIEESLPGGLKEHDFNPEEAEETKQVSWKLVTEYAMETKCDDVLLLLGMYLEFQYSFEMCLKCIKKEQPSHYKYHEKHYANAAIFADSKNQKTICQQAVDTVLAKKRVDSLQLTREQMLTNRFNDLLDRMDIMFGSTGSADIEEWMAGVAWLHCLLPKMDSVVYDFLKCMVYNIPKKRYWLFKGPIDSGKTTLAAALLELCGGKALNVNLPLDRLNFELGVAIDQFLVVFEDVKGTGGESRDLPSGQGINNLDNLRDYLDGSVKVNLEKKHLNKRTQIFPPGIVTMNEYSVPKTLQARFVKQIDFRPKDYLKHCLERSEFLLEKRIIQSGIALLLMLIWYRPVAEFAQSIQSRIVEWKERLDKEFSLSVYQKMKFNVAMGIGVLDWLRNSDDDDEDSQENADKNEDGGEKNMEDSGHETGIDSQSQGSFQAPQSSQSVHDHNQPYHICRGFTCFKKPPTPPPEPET
The target in experiment [16] is T5, Short transient receptor potential channel 4 (Mus musculus, UniProt Q9QUQ5).
T5 sequence (Q9QUQ5 whole entry): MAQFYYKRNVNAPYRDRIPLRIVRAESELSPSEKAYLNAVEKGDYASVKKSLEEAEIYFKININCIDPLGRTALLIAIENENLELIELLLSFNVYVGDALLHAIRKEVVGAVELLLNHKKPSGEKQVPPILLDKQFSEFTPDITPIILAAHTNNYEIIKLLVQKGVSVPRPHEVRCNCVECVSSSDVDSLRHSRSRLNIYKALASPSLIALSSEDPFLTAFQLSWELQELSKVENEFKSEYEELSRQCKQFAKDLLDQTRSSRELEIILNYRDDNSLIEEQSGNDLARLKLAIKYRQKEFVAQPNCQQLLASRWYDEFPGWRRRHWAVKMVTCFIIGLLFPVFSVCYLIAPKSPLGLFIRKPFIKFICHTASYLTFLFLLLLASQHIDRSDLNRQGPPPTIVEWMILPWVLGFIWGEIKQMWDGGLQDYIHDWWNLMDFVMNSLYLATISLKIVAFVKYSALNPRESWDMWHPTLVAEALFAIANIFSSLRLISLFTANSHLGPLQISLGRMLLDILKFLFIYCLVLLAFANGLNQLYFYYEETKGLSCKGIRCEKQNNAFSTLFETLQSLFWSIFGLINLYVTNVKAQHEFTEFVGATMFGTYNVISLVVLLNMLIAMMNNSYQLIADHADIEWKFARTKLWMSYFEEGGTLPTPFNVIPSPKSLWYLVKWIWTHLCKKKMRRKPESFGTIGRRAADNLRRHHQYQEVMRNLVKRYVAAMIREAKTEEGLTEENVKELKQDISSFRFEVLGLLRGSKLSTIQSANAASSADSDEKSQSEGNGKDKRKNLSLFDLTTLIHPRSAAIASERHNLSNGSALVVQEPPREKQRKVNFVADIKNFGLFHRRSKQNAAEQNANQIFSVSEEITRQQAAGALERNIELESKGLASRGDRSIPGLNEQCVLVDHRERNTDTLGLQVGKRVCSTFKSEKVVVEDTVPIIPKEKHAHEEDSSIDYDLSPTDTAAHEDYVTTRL
Kind of experiment: block of DAMGO-driven TRPC4 calcium entry – cell-based, HEK293 TRPC4/mu-opioid, Fluo-4 calcium, dose response (AID 434942).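 Further: potency of inhibitors blocking the TRPC4 calcium response.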 The class given is functional.

Chain of Melanin-concentrating hormone receptor 1 (Q99705 whole entry): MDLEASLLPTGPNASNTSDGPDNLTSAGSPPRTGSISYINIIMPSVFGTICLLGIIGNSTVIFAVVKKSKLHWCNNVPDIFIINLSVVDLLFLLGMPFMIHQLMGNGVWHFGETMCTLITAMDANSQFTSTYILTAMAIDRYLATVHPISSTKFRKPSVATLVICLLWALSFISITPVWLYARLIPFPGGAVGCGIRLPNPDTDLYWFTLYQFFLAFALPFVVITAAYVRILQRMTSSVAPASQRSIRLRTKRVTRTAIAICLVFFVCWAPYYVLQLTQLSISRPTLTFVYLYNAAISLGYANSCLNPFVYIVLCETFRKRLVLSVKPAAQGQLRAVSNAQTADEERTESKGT
Chain of Hexokinase (Q38C41 whole entry): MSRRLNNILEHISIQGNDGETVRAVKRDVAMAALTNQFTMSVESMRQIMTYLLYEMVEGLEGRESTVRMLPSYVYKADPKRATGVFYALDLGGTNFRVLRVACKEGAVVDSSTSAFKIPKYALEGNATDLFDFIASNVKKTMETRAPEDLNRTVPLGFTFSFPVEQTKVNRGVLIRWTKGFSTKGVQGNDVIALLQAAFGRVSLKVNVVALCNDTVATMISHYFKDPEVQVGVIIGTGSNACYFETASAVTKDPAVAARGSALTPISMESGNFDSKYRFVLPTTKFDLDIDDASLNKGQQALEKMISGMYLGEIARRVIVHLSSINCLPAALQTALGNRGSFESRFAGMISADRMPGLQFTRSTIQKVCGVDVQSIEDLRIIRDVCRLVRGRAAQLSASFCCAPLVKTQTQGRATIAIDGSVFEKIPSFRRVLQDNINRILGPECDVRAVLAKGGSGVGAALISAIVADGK
Chain of Cytochrome P450 2C19 (P33261 whole entry): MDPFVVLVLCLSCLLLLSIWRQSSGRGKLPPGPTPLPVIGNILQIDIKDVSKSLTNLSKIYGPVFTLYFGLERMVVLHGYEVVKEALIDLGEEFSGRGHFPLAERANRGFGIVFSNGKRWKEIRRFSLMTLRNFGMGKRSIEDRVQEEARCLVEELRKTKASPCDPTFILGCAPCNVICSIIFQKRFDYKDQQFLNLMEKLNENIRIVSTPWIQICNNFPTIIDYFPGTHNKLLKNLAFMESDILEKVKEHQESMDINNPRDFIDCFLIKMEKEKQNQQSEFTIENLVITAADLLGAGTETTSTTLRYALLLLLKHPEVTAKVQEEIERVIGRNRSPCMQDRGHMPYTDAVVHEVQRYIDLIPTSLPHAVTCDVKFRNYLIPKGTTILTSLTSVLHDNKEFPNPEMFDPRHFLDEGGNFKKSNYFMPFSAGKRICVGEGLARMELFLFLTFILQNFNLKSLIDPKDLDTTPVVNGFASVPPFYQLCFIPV
Chain of Paired box protein Pax-8 (Q06710 whole entry): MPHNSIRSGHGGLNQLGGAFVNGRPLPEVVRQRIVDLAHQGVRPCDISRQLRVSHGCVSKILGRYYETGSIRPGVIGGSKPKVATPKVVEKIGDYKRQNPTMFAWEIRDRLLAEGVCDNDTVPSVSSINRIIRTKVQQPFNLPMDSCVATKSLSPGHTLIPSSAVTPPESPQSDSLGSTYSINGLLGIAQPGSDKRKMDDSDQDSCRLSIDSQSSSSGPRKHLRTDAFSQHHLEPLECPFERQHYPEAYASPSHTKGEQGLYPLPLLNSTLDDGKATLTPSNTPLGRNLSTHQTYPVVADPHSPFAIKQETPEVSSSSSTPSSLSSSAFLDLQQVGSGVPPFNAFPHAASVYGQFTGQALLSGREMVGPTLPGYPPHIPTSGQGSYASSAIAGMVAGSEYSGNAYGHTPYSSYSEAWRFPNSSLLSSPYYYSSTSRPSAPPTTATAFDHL

Regarding `Cc1cc(C)c2nc(SCC(=O)N3CC(=O)Nc4ccccc43)c(C#N)cc2c1`, the EC50 – broadly, the midpoint of the concentration-response curve – in [1] is 0.13 µM (active); in [2] it was 0.665 µM (active); in the experiment “cells [3]”, > 12 µM (not active); in experiment [4] it was 0.217 µM (active); in experiment [5], < 0.1 µM (active); in [6] it was > 12 µM (inconclusive). In addition, the IC50 (in “cells [7]”; in experiment [8]) was > 67.5 µM (inactive) throughout. Besides, the AC50 on Paired box protein Pax-8 was 1.25 µM (active).

`COc1ccccc1C1CC(c2ccc(Cl)cc2)N=C2N=CNN21` (configuration not stated): in experiment [9], the IC50 was 24.5 µM (not active).

For the compound `COc1ccc(-c2csc(N3CCN(c4cc(C)nc5ccccc45)CC3)n2)cc1OC`, the EC50 in experiment [10] was 21.4 µM (inactive). In addition, the IC50 in experiment [11] was 11.8 µM (active).

`CCOC(c1cc(OC)cc([N+](=O)[O-])c1OC)C(C)C(OC)[C@@H](C)/C=C/CC(=O)OC` (some centres not stated): at Cytochrome P450 2C9, the AC50 was 2.51 µM (inconclusive).

Turning to `COC(=O)CN1CCN(C(=O)c2ccc(F)cc2)c2ccccc2C1`, in experiment [12], the EC50 was > 50 µM (not active).

Consider `O=C(CSc1nn(-c2ccccc2)c(=S)s1)Nn1cnnc1`, for which the IC50 at Aspartyl aminopeptidase was 1.61 µM (active); on Procathepsin L, > 59.6 µM (not active).

Regarding `C=C(C)C(O)/C=C/c1ccc(OC)cc1` (configuration not stated), the AC50 at Cytochrome P450 2C19 is 0.501 µM (inconclusive); on Cytochrome P450 2C9 it was 2.51 µM (inconclusive).

In the case of `Cc1cc(C(=O)N2CCC(Cc3ccccc3)CC2)ccc1[N+](=O)[O-]`, in [9], the IC50 was 16.6 µM (not active).

As for `O=C(/C=C\c1ccccc1)NCC(=O)N/N=C/c1ccc(O)cc1O`, the AC50 in experiment [13] was 11.1 µM (active); in experiment [14], 7.99 µM (active). For the same compound, the EC50 in experiment [10] was 23.1 µM (inactive).

As for `CCOc1ccccc1C1C(C(=O)Nc2ccccc2OC)=C(C)Nc2nnnn21` (configuration not stated), the EC50 in experiment [12] is given as > 10 µM (not active).

As to `O=C(Nc1cc(Cl)ccc1C(=O)O)c1ccccc1`, the IC50 on Hexokinase was > 25 µM (inactive).

Consider `CC(C)Oc1ccc(CC2CCC(=O)N(C)C2=O)cc1` (configuration not stated), for which, in experiment [15], the AC50 is 26.2 µM (active).

For the compound `COc1ccc(-c2ccc(OC(=O)NC3CCS(=O)(=O)C3)cc2)cc1` (configuration not stated), on Large T antigen, the IC50 is 9.45 µM (active). Moreover, the AC50 in experiment [15] is 30.7 µM (active).

Consider `CCOc1ccc(Br)cc1/C=N/O`, for which, in [16], the EC50 is 5.96 µM (active).

With `CC(C)Cc1nc(N2CCOCC2)c(C#N)c2c1CCC2`, the 50% effective concentration (EC50) in experiment [16] is 6.68 µM (active).

Consider `O=c1c2cc(F)ccc2sn1-c1ccc(Cl)cc1`, for which the IC50 on Hexokinase is 3.01 µM (active).

On to `O=C(CSc1nnc[nH]1)Nc1nc(-c2ccccc2)ns1`, for which the IC50 at Aspartyl aminopeptidase is 0.442 µM (active); on Procathepsin L, > 59.6 µM (not active).
